Measured values as given in US11697648B2, “Fused pyrimidine pyridinone compounds as JAK inhibitors” (THERAVANCE BIOPHARMA R&D IP, LLC, priority 2019, dated 2023).

Legend:
JAK3 = JAK3 (Homo sapiens (Human), UniProt P52333); assay: Biochemical JAK3 kinase assay (LanthaScreen); details: for JAK3 (pKi)-JAK1 (pKi): selectivity JAK3 over JAK1, difference of pKi
Outline: (§1)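 GST-JAK + GFP-STAT1 peptide, HEPES pH 7.5/MgCl2/EGTA/Brij-35 buffer; cpd preincubation 1 h RT; ATP start, 1 h RT; stop with 10 mM EDTA + 2 nM Tb-anti-pSTAT1; TR-FRET 520/495. 4-parameter IC50 → pKi (Cheng-Prusoff).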

[1] = system: IL-2 stimulated STAT5 phosphorylation in Tall-1 human T cell line (JAK3); assay: Cellular JAK3 potency assay: inhibition of IL-2 stimulated pSTAT5 in Tall-1 T cells; format: cell-based; details: IL-2 stimulated pSTAT5, Tall-1 T cells
Outline: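 Tall-1 cells, 45,000 per well, preincubated 1 hour with compound at 37 °C, then stimulated 30 minutes with IL-2 at 300 ng/ml final. pSTAT5 (Tyr694/699) in lysates quantified by AlphaLISA SureFire Ultra. pIC50 derived from inhibition curves, given as mean with SD.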

JAK2 = JAK2 (Homo sapiens (Human), UniProt O60674); assay: Biochemical JAK2 kinase assay (LanthaScreen)
Outline: as §1

JAK1 = JAK1 (Homo sapiens (Human), UniProt P23458); assay: Biochemical JAK1 kinase assay (LanthaScreen)
Outline: as §1

Tyk2 = Tyk2 (Homo sapiens (Human), UniProt P29597); assay: Biochemical Tyk2 kinase assay (LanthaScreen)
Outline: as §1

Sequence of JAK2 (O60674 whole entry): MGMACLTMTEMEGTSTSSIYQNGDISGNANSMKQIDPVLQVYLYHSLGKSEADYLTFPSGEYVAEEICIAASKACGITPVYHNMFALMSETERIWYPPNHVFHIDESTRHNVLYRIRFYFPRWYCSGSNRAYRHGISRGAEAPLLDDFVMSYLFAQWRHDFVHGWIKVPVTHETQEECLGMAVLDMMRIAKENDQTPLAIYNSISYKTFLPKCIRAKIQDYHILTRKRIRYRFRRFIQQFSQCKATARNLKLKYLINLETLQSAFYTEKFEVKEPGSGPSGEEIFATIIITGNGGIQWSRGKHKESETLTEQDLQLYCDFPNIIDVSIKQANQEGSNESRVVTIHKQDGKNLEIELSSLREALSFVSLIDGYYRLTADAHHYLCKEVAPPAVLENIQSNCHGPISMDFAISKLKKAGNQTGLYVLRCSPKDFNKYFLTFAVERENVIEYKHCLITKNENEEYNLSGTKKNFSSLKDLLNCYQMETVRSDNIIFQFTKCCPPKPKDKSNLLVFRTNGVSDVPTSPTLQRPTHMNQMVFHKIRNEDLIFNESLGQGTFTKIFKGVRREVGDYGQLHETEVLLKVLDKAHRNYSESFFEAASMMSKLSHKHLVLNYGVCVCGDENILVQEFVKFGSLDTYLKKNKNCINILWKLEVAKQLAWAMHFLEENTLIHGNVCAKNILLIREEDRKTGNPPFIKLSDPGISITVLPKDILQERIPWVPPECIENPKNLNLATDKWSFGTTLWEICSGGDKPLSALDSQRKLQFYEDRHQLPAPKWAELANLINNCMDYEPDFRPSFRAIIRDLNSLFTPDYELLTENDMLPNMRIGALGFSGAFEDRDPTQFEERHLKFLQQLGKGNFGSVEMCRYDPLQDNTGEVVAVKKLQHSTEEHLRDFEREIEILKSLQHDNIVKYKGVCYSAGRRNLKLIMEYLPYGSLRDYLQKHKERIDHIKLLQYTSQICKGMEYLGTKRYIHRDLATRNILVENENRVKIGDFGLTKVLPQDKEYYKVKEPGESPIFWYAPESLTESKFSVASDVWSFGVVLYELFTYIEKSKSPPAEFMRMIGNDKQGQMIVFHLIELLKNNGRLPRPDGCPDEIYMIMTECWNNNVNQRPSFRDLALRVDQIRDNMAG
Sequence of JAK3 (P52333 whole entry): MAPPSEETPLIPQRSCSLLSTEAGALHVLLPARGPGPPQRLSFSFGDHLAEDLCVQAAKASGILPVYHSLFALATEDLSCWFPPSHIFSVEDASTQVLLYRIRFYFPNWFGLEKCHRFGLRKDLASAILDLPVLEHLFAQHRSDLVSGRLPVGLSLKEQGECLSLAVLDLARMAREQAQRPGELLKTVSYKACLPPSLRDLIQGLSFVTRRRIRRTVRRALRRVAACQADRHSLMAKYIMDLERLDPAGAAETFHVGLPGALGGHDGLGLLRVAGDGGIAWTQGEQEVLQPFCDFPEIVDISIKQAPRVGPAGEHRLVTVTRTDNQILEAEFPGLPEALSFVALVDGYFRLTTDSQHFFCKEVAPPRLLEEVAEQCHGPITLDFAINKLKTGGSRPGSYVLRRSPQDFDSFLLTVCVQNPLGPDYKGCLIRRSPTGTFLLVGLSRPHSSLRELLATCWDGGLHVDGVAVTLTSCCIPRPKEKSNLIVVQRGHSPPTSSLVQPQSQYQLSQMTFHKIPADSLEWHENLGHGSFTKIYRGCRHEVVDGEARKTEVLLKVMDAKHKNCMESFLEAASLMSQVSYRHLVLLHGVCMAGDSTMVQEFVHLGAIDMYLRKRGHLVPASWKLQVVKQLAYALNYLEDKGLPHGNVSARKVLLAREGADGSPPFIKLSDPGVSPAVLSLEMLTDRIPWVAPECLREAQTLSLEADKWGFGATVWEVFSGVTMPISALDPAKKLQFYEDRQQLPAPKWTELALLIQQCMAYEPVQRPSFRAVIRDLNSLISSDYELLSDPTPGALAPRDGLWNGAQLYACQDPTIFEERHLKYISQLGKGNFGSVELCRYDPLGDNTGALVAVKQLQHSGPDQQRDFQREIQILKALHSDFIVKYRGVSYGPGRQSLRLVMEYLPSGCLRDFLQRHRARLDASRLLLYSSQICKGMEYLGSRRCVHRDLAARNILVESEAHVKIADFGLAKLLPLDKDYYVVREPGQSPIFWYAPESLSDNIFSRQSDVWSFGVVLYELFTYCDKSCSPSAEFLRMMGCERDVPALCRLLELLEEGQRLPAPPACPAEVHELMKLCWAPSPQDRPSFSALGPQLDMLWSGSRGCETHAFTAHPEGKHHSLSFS
Sequence of JAK1 (P23458 whole entry): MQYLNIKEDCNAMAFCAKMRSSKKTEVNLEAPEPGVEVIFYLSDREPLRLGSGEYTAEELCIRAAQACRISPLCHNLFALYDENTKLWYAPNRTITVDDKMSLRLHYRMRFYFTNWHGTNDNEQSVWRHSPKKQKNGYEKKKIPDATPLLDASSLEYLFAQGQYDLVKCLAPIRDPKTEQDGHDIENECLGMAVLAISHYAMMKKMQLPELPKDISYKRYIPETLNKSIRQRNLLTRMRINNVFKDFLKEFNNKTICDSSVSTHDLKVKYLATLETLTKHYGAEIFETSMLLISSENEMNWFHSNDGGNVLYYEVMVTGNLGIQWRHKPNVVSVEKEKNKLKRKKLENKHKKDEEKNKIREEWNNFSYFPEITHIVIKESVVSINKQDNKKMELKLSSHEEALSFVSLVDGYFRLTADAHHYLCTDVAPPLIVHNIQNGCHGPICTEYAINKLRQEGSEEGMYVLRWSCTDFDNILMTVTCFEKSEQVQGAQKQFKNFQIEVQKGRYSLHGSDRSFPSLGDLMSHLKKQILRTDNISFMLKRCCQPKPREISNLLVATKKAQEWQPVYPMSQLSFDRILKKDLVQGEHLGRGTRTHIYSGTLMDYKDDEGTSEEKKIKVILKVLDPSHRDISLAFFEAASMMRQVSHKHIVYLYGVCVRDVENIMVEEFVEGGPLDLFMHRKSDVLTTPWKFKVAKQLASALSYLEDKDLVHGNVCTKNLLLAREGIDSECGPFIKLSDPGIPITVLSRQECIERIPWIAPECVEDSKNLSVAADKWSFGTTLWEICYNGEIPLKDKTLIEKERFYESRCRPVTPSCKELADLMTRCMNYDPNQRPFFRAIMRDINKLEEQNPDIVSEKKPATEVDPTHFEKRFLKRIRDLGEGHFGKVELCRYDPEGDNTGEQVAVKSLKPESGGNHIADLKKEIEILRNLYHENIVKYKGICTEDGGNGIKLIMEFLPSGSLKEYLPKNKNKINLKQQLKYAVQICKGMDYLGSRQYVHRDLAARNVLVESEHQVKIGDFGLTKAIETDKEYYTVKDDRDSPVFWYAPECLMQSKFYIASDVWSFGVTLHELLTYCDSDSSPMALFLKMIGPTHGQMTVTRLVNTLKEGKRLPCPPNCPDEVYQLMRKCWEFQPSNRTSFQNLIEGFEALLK
Sequence of Tyk2 (P29597 whole entry): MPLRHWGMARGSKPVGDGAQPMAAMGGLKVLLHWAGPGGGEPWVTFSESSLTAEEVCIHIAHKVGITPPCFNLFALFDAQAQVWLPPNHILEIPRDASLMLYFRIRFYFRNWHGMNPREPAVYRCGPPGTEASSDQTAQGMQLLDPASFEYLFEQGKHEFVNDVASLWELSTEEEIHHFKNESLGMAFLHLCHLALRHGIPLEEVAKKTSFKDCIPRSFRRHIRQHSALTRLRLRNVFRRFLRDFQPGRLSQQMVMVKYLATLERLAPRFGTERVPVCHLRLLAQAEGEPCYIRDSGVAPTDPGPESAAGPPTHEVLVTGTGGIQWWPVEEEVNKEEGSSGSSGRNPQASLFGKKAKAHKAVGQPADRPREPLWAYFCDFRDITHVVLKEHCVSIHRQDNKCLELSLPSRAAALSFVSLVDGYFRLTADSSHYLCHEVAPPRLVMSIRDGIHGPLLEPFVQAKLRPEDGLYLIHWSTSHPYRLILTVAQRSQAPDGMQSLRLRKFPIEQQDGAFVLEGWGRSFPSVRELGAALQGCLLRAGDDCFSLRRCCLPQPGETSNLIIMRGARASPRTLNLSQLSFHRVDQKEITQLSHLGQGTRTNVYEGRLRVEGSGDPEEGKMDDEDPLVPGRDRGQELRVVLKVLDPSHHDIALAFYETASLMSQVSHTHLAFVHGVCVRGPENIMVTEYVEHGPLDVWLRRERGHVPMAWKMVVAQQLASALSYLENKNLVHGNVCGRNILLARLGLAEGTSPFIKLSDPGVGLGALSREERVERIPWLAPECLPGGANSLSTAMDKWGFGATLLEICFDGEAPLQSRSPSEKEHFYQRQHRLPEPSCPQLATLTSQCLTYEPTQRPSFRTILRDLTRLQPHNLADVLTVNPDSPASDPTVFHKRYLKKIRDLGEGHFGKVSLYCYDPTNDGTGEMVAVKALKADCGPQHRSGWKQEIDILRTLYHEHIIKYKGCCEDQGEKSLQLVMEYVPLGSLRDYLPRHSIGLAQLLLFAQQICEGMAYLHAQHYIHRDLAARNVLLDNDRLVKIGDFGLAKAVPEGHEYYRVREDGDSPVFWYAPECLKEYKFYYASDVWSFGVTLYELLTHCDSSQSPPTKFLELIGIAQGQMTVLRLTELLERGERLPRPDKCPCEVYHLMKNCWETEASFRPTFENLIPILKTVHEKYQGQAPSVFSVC

Compound | JAK 3 (pKi) (JAK3) | JAK3 (pKi)-JAK1 (pKi) (JAK3) | Tall-1 (pIC50) [1] | JAK 2 (pKi) (JAK2) | JAK 1 (pKi) (JAK1) | Tyk 2 (pKi) (Tyk2)
C=CC(=O)N1CC(CCn2c(=O)ccc3cnc(Nc4cccc(CN5CCN(S(=O)(=O)C6COC6)CC5)c4)nc32)C1 [Example 126] | A (A represents a pKi value≥10 (Ki≤0.1 nM)) | A (A represents a value of 3 or above) | B (B represents a pC50 value between 6.7 (included) and 7.5 (IC50 between 200 nM and 32 nM)) | E (E represents a pKi value of 7 or below (Ki of 100 nM or above)) | E (E represents a pKi value of 7 or below (Ki of 100 nM or above)) | E (E represents a pKi value of 7 or below (Ki of 100 nM or above))
C=CC(=O)N1CC(CCn2c(=O)ccc3cnc(Nc4cccc(N5CCN(S(=O)(=O)CC#N)CC5)c4)nc32)C1 [Example 128] | A (A represents a pKi value≥10 (Ki≤0.1 nM)) | A (A represents a value of 3 or above) | B (B represents a pC50 value between 6.7 (included) and 7.5 (IC50 between 200 nM and 32 nM)) | E (E represents a pKi value of 7 or below (Ki of 100 nM or above)) | E (E represents a pKi value of 7 or below (Ki of 100 nM or above)) | E (E represents a pKi value of 7 or below (Ki of 100 nM or above))
C=CC(=O)N1CC(CCn2c(=O)ccc3cnc(Nc4cccc(N5CCN(S(=O)(=O)C6COC6)CC5)c4)nc32)C1 [Example 129] | A (A represents a pKi value≥10 (Ki≤0.1 nM)) | A (A represents a value of 3 or above) | B (B represents a pC50 value between 6.7 (included) and 7.5 (IC50 between 200 nM and 32 nM)) | E (E represents a pKi value of 7 or below (Ki of 100 nM or above)) | E (E represents a pKi value of 7 or below (Ki of 100 nM or above)) | E (E represents a pKi value of 7 or below (Ki of 100 nM or above))
C=CC(=O)N1CC(CCn2c(=O)ccc3cnc(Nc4cccc(CN5CCN(S(=O)(=O)CCOC)CC5)c4)nc32)C1 [Example 132] | A (A represents a pKi value≥10 (Ki≤0.1 nM)) | A (A represents a value of 3 or above) | B (B represents a pC50 value between 6.7 (included) and 7.5 (IC50 between 200 nM and 32 nM)) | E (E represents a pKi value of 7 or below (Ki of 100 nM or above)) | E (E represents a pKi value of 7 or below (Ki of 100 nM or above)) | E (E represents a pKi value of 7 or below (Ki of 100 nM or above))
C=CC(=O)N1CCN(CCn2c(=O)ccc3cnc(Nc4ccc(N5CCN(C(=O)COC)CC5)cc4)nc32)CC1 [Example 144] | A (A represents a pKi value≥10 (Ki≤0.1 nM)) | A (A represents a value of 3 or above) | B (B represents a pC50 value between 6.7 (included) and 7.5 (IC50 between 200 nM and 32 nM)) | E (E represents a pKi value of 7 or below (Ki of 100 nM or above)) | E (E represents a pKi value of 7 or below (Ki of 100 nM or above)) | E (E represents a pKi value of 7 or below (Ki of 100 nM or above))
C=CC(=O)N1CCN(CCn2c(=O)ccc3cnc(Nc4ccc(N5CCN(C(=O)N(C)C)CC5)cc4)nc32)CC1 [Example 146] | B (B represents pKi value between 9 and 10 (Ki between 1 nM and 0.1 nM)) | A (A represents a value of 3 or above) | B (B represents a pC50 value between 6.7 (included) and 7.5 (IC50 between 200 nM and 32 nM)) | E (E represents a pKi value of 7 or below (Ki of 100 nM or above)) | E (E represents a pKi value of 7 or below (Ki of 100 nM or above)) | E (E represents a pKi value of 7 or below (Ki of 100 nM or above))
C=CC(=O)N1CCN(CCn2c(=O)ccc3cnc(Nc4ccc(N5CCN(S(=O)(=O)CCOC)CC5)cc4)nc32)CC1 [Example 147] | B (B represents pKi value between 9 and 10 (Ki between 1 nM and 0.1 nM)) | A (A represents a value of 3 or above) | C (C represents a pIC50 value between 6 and 6.7 (IC50 between 1 μM and 200 nM)) | E (E represents a pKi value of 7 or below (Ki of 100 nM or above)) | E (E represents a pKi value of 7 or below (Ki of 100 nM or above)) | E (E represents a pKi value of 7 or below (Ki of 100 nM or above))
C=CC(=O)N1CCN(CCn2c(=O)ccc3cnc(Nc4ccc(N5CCN(S(=O)(=O)C6COC6)CC5)cc4)nc32)CC1 [Example 148] | B (B represents pKi value between 9 and 10 (Ki between 1 nM and 0.1 nM)) | A (A represents a value of 3 or above) | C (C represents a pIC50 value between 6 and 6.7 (IC50 between 1 μM and 200 nM)) | E (E represents a pKi value of 7 or below (Ki of 100 nM or above)) | E (E represents a pKi value of 7 or below (Ki of 100 nM or above)) | E (E represents a pKi value of 7 or below (Ki of 100 nM or above))
C=CC(=O)N1CCN(CCn2c(=O)ccc3cnc(Nc4cnn(C)c4)nc32)C2(CC2)C1 [Example 149] | B (B represents pKi value between 9 and 10 (Ki between 1 nM and 0.1 nM)) | A (A represents a value of 3 or above) | C (C represents a pIC50 value between 6 and 6.7 (IC50 between 1 μM and 200 nM)) | E (E represents a pKi value of 7 or below (Ki of 100 nM or above)) | E (E represents a pKi value of 7 or below (Ki of 100 nM or above)) | E (E represents a pKi value of 7 or below (Ki of 100 nM or above))
C=CC(=O)N1CCN(CCn2c(=O)ccc3cnc(Nc4ccc(N5CCN(C(C)=O)CC5)c(F)c4)nc32)CC1 [Example 152] | B (B represents pKi value between 9 and 10 (Ki between 1 nM and 0.1 nM)) | A (A represents a value of 3 or above) | C (C represents a pIC50 value between 6 and 6.7 (IC50 between 1 μM and 200 nM)) | E (E represents a pKi value of 7 or below (Ki of 100 nM or above)) | E (E represents a pKi value of 7 or below (Ki of 100 nM or above)) | E (E represents a pKi value of 7 or below (Ki of 100 nM or above))
C=CC(=O)N1CCN(CCn2c(=O)ccc3cnc(Nc4ccc(N5CCN(C(C)=O)CC5)c(Cl)c4)nc32)CC1 [Example 153] | B (B represents pKi value between 9 and 10 (Ki between 1 nM and 0.1 nM)) | A (A represents a value of 3 or above) | C (C represents a pIC50 value between 6 and 6.7 (IC50 between 1 μM and 200 nM)) | E (E represents a pKi value of 7 or below (Ki of 100 nM or above)) | E (E represents a pKi value of 7 or below (Ki of 100 nM or above)) | E (E represents a pKi value of 7 or below (Ki of 100 nM or above))
C=CC(=O)N1CCN(CCn2c(=O)ccc3cnc(Nc4ccc(N5CCN(C)CC5)c(Cl)c4)nc32)CC1 [Example 154] | B (B represents pKi value between 9 and 10 (Ki between 1 nM and 0.1 nM)) | A (A represents a value of 3 or above) | B (B represents a pC50 value between 6.7 (included) and 7.5 (IC50 between 200 nM and 32 nM)) | E (E represents a pKi value of 7 or below (Ki of 100 nM or above)) | E (E represents a pKi value of 7 or below (Ki of 100 nM or above)) | E (E represents a pKi value of 7 or below (Ki of 100 nM or above))
C=CC(=O)N1CCN(CCn2c(=O)ccc3cnc(Nc4cnn(C)c4)nc32)[C@@H](CCC)C1 [Example 158] | B (B represents pKi value between 9 and 10 (Ki between 1 nM and 0.1 nM)) | A (A represents a value of 3 or above) | C (C represents a pIC50 value between 6 and 6.7 (IC50 between 1 μM and 200 nM)) | E (E represents a pKi value of 7 or below (Ki of 100 nM or above)) | E (E represents a pKi value of 7 or below (Ki of 100 nM or above)) | E (E represents a pKi value of 7 or below (Ki of 100 nM or above))
